Data: patent publication US9874565B2, “Oncogene associated with human cancers and methods of use thereof” (Dana-Farber Cancer Institute, Inc., priority 2013, dated 2018)

Test system: hMECs transformed with MECP2
Assay: growth inhibition of hMECs transformed with MECP2 compared with isogenic cells transformed by activated RAS
Format: cell-based, human
Excerpt: Because MECP2 only binds to methylated CpG sequences and hydroxymethylcytosine, and because data have shown that oncogenic activation of MECP2 depends upon its DNA-binding region, […] it is likely that the oncogenic activity of MECP2 is mediated by binding of the protein to methylated CpG sequences of hydroxymethylated cytosine. For this reason, it was investigated whether DNA methylation inhibitors hinder cell growth in a MECP2-dependent manner. DNA methylation inhibitors prevent the formation of both methylated CpG sequences and hydroxymethylated cytosine.
MECP2 is known to be present in a complex with Class I histone deacetylases. […] This led to investigation of whether MECP2-transformed cells were particularly vulnerable to HDAC inhibitors. […] Furthermore, it was shown that combined treatment with the DNA methylation inhibitor 5-azacytdine and the HDAC inhibitor Trichostatin A is synergistic in a hMEC experimental system.

Structure (SMILES)	sensitivity of hMECs transformed with MECP2 relative to isogenic cells transformed by activated RAS (DNA methylation inhibitors, MECP2-transformed vs activated RAS-transformed isogenic hMECs)	susceptibility of MECP2-transformed cells relative to isogenic cells transformed by activated RAS (HDAC inhibitor, MECP2-transformed vs activated RAS-transformed isogenic cells)
Nc1ncn([C@@H]2O[C@H](CO)[C@@H](O)[C@H]2O)c(=O)n1 [5-azacytidine]	an order of magnitude more sensitive	–
CC(/C=C/C(=O)NO)=C\[C@@H](C)C(=O)c1ccc(N(C)C)cc1 [Trichostatin A]	–	an order of magnitude more susceptible
